A short description of data set [1]: In vitro rate of absorption observed as Caco-2 permeability in humans. It counts as ADME, cell-based. The note with it: human, read-out: Papp e-6. On the technique in general: Caco-2 cells form a polarised layer with tight junctions and transporters.
Data set [2] is described as follows: Oral bioavailability in human. Format: ADME, organism-based. The note with it: in vivo.
A short description of data set [3]: Metabolic stability observed at 30 min after administration in human liver microsomes. It counts as ADME, Microsome. The note with it: read-out: R.

Turning to `CC(C)NCC(O)COc1cccc2ccccc12` (centres undefined) [PROPRANOLOL], the Papp in data set [1] came to 41.9 ×10⁻⁶ cm/s. Also, the bioavailability in data set [2] turned out to be 26%. In addition, the remaining at 0.5 h in data set [3] was found to be 29%.

Take `CC(=O)CC(c1ccccc1)c1c(O)c2ccccc2oc1=O` (centres undefined) [WARFARIN]: in data set [1], the apparent permeability (Papp) turned out to be 38.3 ×10⁻⁶ cm/s.

Take `OC[C@@H](O)[C@@H](O)[C@H](O)[C@H](O)CO` [MANNITOL]: in data set [1], the Papp came to 2 ×10⁻⁶ cm/s. Also, in data set [2], the bioavailability turned out to be 18%. Moreover, the remaining at 0.5 h in data set [3] worked out at 100%.

In the case of `NC(=O)N1c2ccccc2C=Cc2ccccc21` [CARBAMAZEPINE], the Papp in data set [1] came out at 22.8 ×10⁻⁶ cm/s. This compound also had a bioavailability in data set [2] of 70%. In data set [3], the remaining at 0.5 h amounted to 96%.

`CC(C)(C)NC[C@H](O)COc1nsnc1N1CCOCC1` [TIMOLOL]: the apparent permeability (Papp) in data set [1] was found to be 12.8 ×10⁻⁶ cm/s. For the same compound, the bioavailability in data set [2] was 50%. For the same compound, the remaining at 0.5 h in data set [3] worked out at 71%.

As to `COc1ccc2c(c1)c(CC(=O)O)c(C)n2C(=O)c1ccc(Cl)cc1` [INDOMETHACIN], in data set [1], the apparent permeability (Papp) is 20.4 ×10⁻⁶ cm/s. The bioavailability in data set [2] came out at 98%. Besides, the remaining at 0.5 h in data set [3] is 95%.

In the case of `COCCc1ccc(OCC(O)CNC(C)C)cc1` (centres undefined) [METOPROLOL], the Papp in data set [1] was found to be 27 ×10⁻⁶ cm/s. In addition, in data set [2], the bioavailability is 38%. Further, the remaining at 0.5 h in data set [3] worked out at 73%.

By Papp is commonly meant a coefficient for how fast a substance crosses the barrier. As a reminder, the bioavailability is dose-corrected exposure relative to a reference, in per cent. Read a low bioavailability as poor availability.

These data come from ChEMBL document CHEMBL1135799, “Graphical model for estimating oral bioavailability of drugs in humans and other species from their Caco-2 permeability and in vitro liver enzyme metabolic stability rates” (J Med Chem, 2002).
